{
  "source": "paper PMC4869123",
  "about": "(Scientific Reports, 2016)",
  "molecules": {"B1": {"name": "high affinity IL-17A peptide antagonist (HAP) (peptide)", "peptide": "Ac-IHVTIPADLWDWINK", "notes": "15-residue peptide that combines the key residues found by SAR; made on Rink resin; a C-terminal amide is surmised; also called 30; peptide 30; source: synthetic peptide"}},
  "key": {"human IL-17A [1]": {"molecular_target": "T1, human IL-17A (Homo sapiens, UniProt Q16552)", "T1 construct": "host or cells: added to BJ human fibroblasts (ATCC CRL2522)", "T1 sequence (Q16552 24-155)": "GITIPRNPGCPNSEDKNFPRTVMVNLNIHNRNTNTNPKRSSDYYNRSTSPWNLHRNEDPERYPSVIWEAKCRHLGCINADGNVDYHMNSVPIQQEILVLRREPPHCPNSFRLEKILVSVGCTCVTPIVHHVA", "test": "BJ human fibroblast cell assay, IL-17A stimulated GRO-α production", "assay_type": "cell-based", "settings": "BJ human fibroblast cells, 1 ng/ml human IL-17A", "excerpt": "For inhibitor screen, human BJ fibroblast cells (ATCC CRL2522) (American Type Culture Collection, VA) were used. For mouse cell based assay MLE-12 mouse epithelial cells (ATCC CRL2110) were used. Both cell lines were maintained in ATCC recommended media."}, "murine IL-17A": {"molecular_target": "T2, murine IL-17A (Mus musculus, UniProt Q62386)", "T2 construct": "host or cells: added to MLE-12 mouse epithelial cells (ATCC CRL2110)", "T2 sequence (Q62386 26-158)": "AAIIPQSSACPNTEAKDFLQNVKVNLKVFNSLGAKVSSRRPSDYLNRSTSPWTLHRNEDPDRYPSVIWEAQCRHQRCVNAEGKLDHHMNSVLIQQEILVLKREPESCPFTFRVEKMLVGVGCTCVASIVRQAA", "test": "Murine functional cell assay, MLE-12 mouse epithelial cells, KC production", "assay_type": "cell-based", "procedure": "[…]. For inhibitor screen, human BJ fibroblast cells (ATCC CRL2522) (American Type Culture Collection, VA) were used. For mouse cell based assay MLE-12 mouse epithelial cells (ATCC CRL2110) were used. Both cell lines were maintained in ATCC recommended media. Cells were seeded at 5 × 10^3 cells/well into 96-well flat-bottom microtiter plates in which peptides that had been pre-diluted with cytokines (1 ng/mL for human IL-17A or 15 ng/mL for mouse IL-17A) in culture medium. Cells were incubated at 37 °C for 16–24 hrs, and supernatants were collected and analyzed by ELISA for either human CXCL1/GRO-α (R&D Systems DY275) or mouse CXCL1/KC (R&D Systems DY453).\nFigure S4. Inhibition of IL-17A induced murine keratinocyte-derived cytokine (KC). MLE-12 mouse epithelial cellswere cultured in the presence of IL-17A […]\nwhich time cell culture were removed for analysis of KCproduction.Data are mean and error bars of +/-standard deviation of duplicatedmeasurements […]\n(1 picture or pasted object on this page, not shown here)"}, "[2]": {"molecular_target": "T3, biotinylated mouse IL-17A (mouse, UniProt Q62386 26-158, biotinylated)", "T3 construct": "IL-17A, mouse; also called mIL-17A; murine IL-17A; source: bought: Cell Signaling", "T3 sequence (looked up)": "T2 sequence (Q62386 26-158)", "test": "SPR; Biacore 3000; biotinylated protein captured on a streptavidin chip (about 2500 to 3500 RUs); peptide injected at 50 μl/min, 180 s association, at least 600 s dissociation; 10 mM HEPES pH 7.4, 150 mM NaCl, 0.01% P20, 3% DMSO; single site model, global fit", "settings": "both partners purified"}, "[3]": {"molecular_target": "T3, biotinylated mouse IL-17A", "test": "cell-based or functional assay"}, "human IL-17A [4]": {"molecular_target": "human IL-17A (human, UniProt Q16552 24-155)", "sequence (Q16552 24-155)": "as the sequence (Q16552 24-155) above"}},
  "note": "Read-outs that look alike come from different tables or passages of the source. *1 amine or outer side, *2 acyl side, *3 side chain or, on linkers, in order; H or OH if unused. Where a SMILES comes first, the peptide text is derived from it. Bridges are numbered along the chain shown (N, C = ends). Roman numbers before positions name the chains, in order. Where no end group is shown, it is not given here. [ ]: non-standard residue; d: D form. X1 = O=C(CCOCCOCCOCCOCCOCCOCCOCCOCCOCCOCCOCCOCCOCCOCCOCCOCCOCCOCCOCCOCCOCCC(=O)[*:2])[*:1]; Lys(Me2) = CN(C)CCCC[C@H](N)C(=O)O",
  "data": [
    {"molecule": "CC[C@H](C)[C@H](NC(C)=O)C(=O)N[C@H](C(=O)N[C@H](C(=O)N[C@H](C(=O)N[C@H](C(=O)N1CCC[C@H]1C(=O)N[C@@H](C)C(=O)N[C@@H](CC(=O)O)C(=O)N[C@@H](CC(C)C)C(=O)N[C@@H](Cc1c[nH]c2ccccc12)C(=O)N[C@@H](CC(=O)O)C(=O)N[C@@H](Cc1c[nH]c2ccccc12)C(=O)N[C@H](C(=O)N[C@@H](CCCCNC(=O)CCOCCOCCOCCOCCOCCOCCOCCOCCOCCOCCOCCOCCOCCOCCOCCOCCOCCOCCOCCOCCOCCC(=O)NCCCC[C@H](NC(=O)[C@@H](NC(=O)[C@H](Cc1c[nH]c2ccccc12)NC(=O)[C@H](CC(=O)O)NC(=O)[C@H](Cc1c[nH]c2ccccc12)NC(=O)[C@H](CC(C)C)NC(=O)[C@H](CC(=O)O)NC(=O)[C@H](C)NC(=O)[C@@H]1CCCN1C(=O)[C@@H](NC(=O)[C@@H](NC(=O)[C@@H](NC(=O)[C@@H](NC(=O)[C@@H](NC(C)=O)[C@@H](C)CC)[C@@H](C)O)C(C)C)[C@@H](C)O)[C@@H](C)CC)[C@@H](C)CC)C(=O)N[C@@H](CCCCN(C)C)C(N)=O)C(=O)N[C@@H](CCCCN(C)C)C(N)=O)[C@@H](C)CC)[C@@H](C)CC)[C@@H](C)O)C(C)C)[C@@H](C)O", "note": "[Compound 45] (I: Ac-ITVTIPADLWDWIK[Lys(Me2)]-NH2 / II: Ac-ITVTIPADLWDWIK[Lys(Me2)]-NH2; linker I:14-II:14 via X1)", "values": [
      {"measurement": "IC50", "setting": "human IL-17A [1]", "value": 0.1, "unit": "nM"},
      {"measurement": "IC50", "setting": "murine IL-17A; MLE-12 cells, 15 ng/ml murine IL-17A, KC production, read-out: IC50, murine IL-17A", "value": 41, "unit": "nM"}
    ]},
    {"molecule": "Ac-IHVTIPADLWDWINK-NH2 [Compound 30]", "values": [
      {"measurement": "IC50", "setting": "murine IL-17A", "value": "> 1000", "unit": "nM"}
    ]},
    {"molecule": "B1", "values": [
      {"measurement": "Kd", "setting": "[2]", "value": "30.1 ± 0.1", "unit": "nM"},
      {"measurement": "IC50 in a murine functional cell assay using 15 ng/ml murine IL-17A (inhibition of murine IL-17A signaling)", "setting": "[3]", "value": "> 1", "unit": "µM"}
    ]},
    {"molecule": "Ac-IHVTIPADLWDWI (not fully specified (C-terminus))", "note": "[peptide 36]", "values": [
      {"measurement": "Cell IC50: inhibition of IL-17A signaling in BJ human fibroblast cells stimulated with 1 ng/ml IL-17A", "setting": "human IL-17A [4]", "value": 183, "unit": "nM"}
    ]}
  ]
}
